In US4879376A, “Triterpene saponins having anti-inflammatory, mucolytic and antiedemic activities, process for the preparation thereof and pharmaceutical compositions containing them” (priority 1986, dated 1989):

How the values were obtained:
[1] = tested on: carrageenin oedema on rat paw; experiment: Antioedema activity (carrageenin oedema test); format: in vivo
Method: (b) Antioedema activity (carrageenin oedema test) Antioedema activity was evaluated in the test of carrageenin oedema on rat paw, after oral and topical administration.

rat = conditions: in vivo, po
Description: | ^a maximal nondiarrhoic dose

mucus excretion = experiment: Mucolytic / expectorant activity (sodium fluorescein excretion); format: in vivo; conditions: mouse
phenylquinone writhing = experiment: Analgesic activity (phenylquinone writhing test); format: in vivo; conditions: mouse
Description: (c) Analgesic activity (phenylguinone writhing test)

In the case of Escine, the “% change in paw oedema versus controls” value ([1]; 1 hour, 50 mg/kg os (maximal nondiarrhoic dose)) is reported as -39%, the “% change in paw oedema versus controls” value ([1]; 2 hours, 50 mg/kg os (maximal nondiarrhoic dose)) is reported as -44% and the “% change in paw oedema versus controls” value ([1]; 3 hours, 50 mg/kg os (maximal nondiarrhoic dose)) is reported as -51%. The “% change in paw oedema versus controls” value ([1]; 4 hours, 50 mg/kg os (maximal nondiarrhoic dose)) was -49%, the “% change in paw oedema versus controls” value ([1]; 5 hours, 50 mg/kg os (maximal nondiarrhoic dose)) was -35% and the maximal nondiarrhoic dose (rat) was 50 mg/kg.
`CCCCC1C(=O)N(c2ccccc2)N(c2ccccc2)C1=O` [Phenylbutazone] was tested, and the “% change in paw oedema versus controls” value ([1]; 1 hour, 100 mg/kg os) was -38%, the “% change in paw oedema versus controls” value ([1]; 2 hours, 100 mg/kg os) was -30% and the “% change in paw oedema versus controls” value ([1]; 3 hours, 100 mg/kg os) was -58%. For the same compound, the “% change in paw oedema versus controls” value ([1]; 4 hours, 100 mg/kg os) was -54% and the “% change in paw oedema versus controls” value ([1]; 5 hours, 100 mg/kg os) was -47%.
For `CC1=CCC(C(C)(C)O)CC1O` (centres unmarked) [Sobrerol], the “% increase of sodium fluorescein excretion in comparison with controls” value (mucus excretion; 150 × 1 mg/kg) was “+67%”.
In the case of `CN(Cc1cc(Br)cc(Br)c1N)C1CCCCC1` [Bromhexin, Bromhexine], the “% increase of sodium fluorescein excretion in comparison with controls” value (mucus excretion; 75 × 1 mg/kg) is reported as “+48%”.
In the case of `CC(=O)Oc1ccccc1C(=O)O` [ASA, acetylsalicylic acid], the “% change in paw oedema versus controls” value ([1]; 1 hour, 200 mg/kg os) is reported as -51%, the “% change in paw oedema versus controls” value ([1]; 2 hours, 200 mg/kg os) is reported as -39% and the “% change in paw oedema versus controls” value ([1]; 3 hours, 200 mg/kg os) is reported as -52%. For the same compound, the “% change in paw oedema versus controls” value ([1]; 4 hours, 200 mg/kg os) was -45%, the “% change in paw oedema versus controls” value ([1]; 5 hours, 200 mg/kg os) was -42% and the “% Variation in comparison with controls” value (phenylquinone writhing; 50 mg/kg os) was -31%. The “% Variation in comparison with controls” value (phenylquinone writhing; 100 mg/kg os) was -32%.
